Source: PubChem BioAssay (NCI)
Values joined by “and” are separate entries in the source; they are usually repeats but may differ in a detail not shown here. Equal values may be shown once.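 Tested at 5 concentrations; 48 h exposure; 96-well plates; endpoints linearly interpolated, else capped at highest concentration. At the GI50, growth is halved. TGI marks complete inhibition of growth.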

What was measured:
Assay in all cases: inhibition of tumour cell growth, NCI panel, 48 h
[1] = system: U251 CNS
[2] = system: SF-268 CNS
[3] = system: UO-31 renal
[4] = system: OVCAR-4 ovarian
[5] = system: NCI-H460 lung
[6] = system: HCT-15 colon
[7] = system: SF-295 CNS
[8] = system: HOP-92 NSCLC
[9] = system: IGROV1 ovarian
[10] = system: SK-OV-3 ovarian

Compound | TGI [1] | TGI [2] | TGI [3] | TGI [4] | TGI [5] | TGI [6] | TGI [7] | TGI [8] | TGI [9] | TGI [10] | GI50 [1] | GI50 [2] | GI50 [3] | GI50 [4] | GI50 [5] | GI50 [6] | GI50 [8] | GI50 [9] | GI50 [10] | GI50 [7]
Clc1cc2nsnc2c(Cl)n1 | 40.1 µM | 79.4 µM | 39.8 µM | 31.3 µM | > 100 µM | 45.6 µM | > 100 µM | 33.1 µM | 86.3 µM | > 100 µM |  |  |  |  |  |  |  |  |  | 
C#Cc1ccc(-n2c(/C=C/c3ccc(C(F)(F)F)cc3)nc3ncccc3c2=O)cc1 | 3.13 µM | 5.95 µM | 3.67 µM | 3.29 µM | 4.13 µM | 3.68 µM |  | 3.44 µM | 4.02 µM | 13.4 µM | 1.67 µM | 2.27 µM | 1.43 µM | 1.58 µM | 1.98 µM | 1.74 µM | 1.32 µM | 1.96 µM | 3.61 µM | 
CCCCCN(CCCCC)CC(O)c1cc(C)c2ccc3cc(C(C)C)ccc3c2c1 (stereo unspecified) | 3.82 µM | 4.26 µM | 2.99 µM | 3.75 µM | 4.05 µM | 3.43 µM | 3.46 µM | 2.85 µM | 3.47 µM | 3.46 µM | 1.9 µM | 2.14 µM | 1.48 µM | 1.92 µM | 1.97 µM | 1.81 µM | 1.4 µM | 1.79 µM | 1.72 µM | 1.87 µM
O=S(=O)(NC1=NCCN1C(=S)SN1CCn2c1nsc2=S)c1ccc(OC(F)(F)F)cc1 | 29.4 µM | 98.1 µM | 41.5 µM | 31.6 µM | 48.5 µM | 26.2 µM |  | 44.1 µM | 29.1 µM | 34.6 µM | 14.4 µM | 11 µM | 20.5 µM | 14.6 µM | 13.1 µM | 8.64 µM | 25.1 µM | 11.4 µM | 19.5 µM | 
CC[C@@]1(O)C[C@H](OC2CC(N(C)C)C(O)C(C)O2)c2c(O)c3c(c(O)c2[C@H]1OC1CC(N(C)C)C(O)C(C)O1)C(=O)c1cccc(O)c1C3=O (stereo partly specified) |  |  |  | 0.601 µM and 0.147 µM | 0.304 µM and 0.662 µM | 0.971 µM and 1.29 µM |  |  | 2.94 µM | 0.375 µM and 0.0643 µM | < 0.01 µM | < 0.01 µM | < 0.01 µM | < 0.01 µM | < 0.01 µM | 0.0238 µM | < 0.01 µM | < 0.01 µM | < 0.01 µM | < 0.01 µM
COc1cc(Cc2cnc(/N=C3\C(=O)N(CN4CCN(c5c(F)cc6c(=O)c(C(=O)O)cn(C7CC7)c6c5OC)CC4C)c4ccc(F)cc43)nc2N)cc(OC)c1OC (stereo unspecified) | 21 µM | 57.7 µM | > 100 µM |  | > 100 µM | 5.18 µM | 30.2 µM | 21.8 µM | > 100 µM | 43.1 µM | 8.79 µM | 18.2 µM | 31.7 µM |  | 18.9 µM | 1.35 µM | 7.64 µM | 25.1 µM | 15 µM | 14.4 µM
O=C(Nc1ccccc1)NS(=O)(=O)c1ccc(-n2nc3c(c2-c2cccs2)Cc2ccccc2-3)cc1 | 55.3 µM | > 100 µM | > 100 µM | > 100 µM | > 100 µM | 44.7 µM | 73.5 µM | > 100 µM | > 100 µM | > 100 µM | 22.9 µM | 26 µM | 32.3 µM | 34.9 µM | 18.9 µM | 16.9 µM | 12.3 µM | 21.4 µM | 60.8 µM | 21.9 µM
Cn1c2ccccc2c2c(Nc3ccccc3)c3ccccc3nc21 | 71.8 µM | 53 µM | > 100 µM | > 100 µM | 41.1 µM | 60.5 µM | 23.8 µM | 56.5 µM | > 100 µM | > 100 µM | 22.7 µM | 19.2 µM | 51.8 µM | 21.1 µM | 17.5 µM | 14.1 µM | 13.9 µM | 61.3 µM | 41 µM | 5.62 µM
CCC(CO)Nc1nc2ccc(Cl)cc2c2ccccc12 (stereo unspecified) | 18.3 µM | 23.4 µM | 16.3 µM | 25.5 µM | 14.8 µM | 15.4 µM | 15.3 µM | 14.8 µM | 23.5 µM | 24.1 µM | 5.18 µM | 10.7 µM | 4.01 µM | 11.9 µM | 3.93 µM | 3.7 µM | 3.06 µM | 11.2 µM | 11.8 µM | 2.81 µM
COC(=O)[C@@H]1[C@H](O)[C@H](C)[C@H](O)[C@@](C)(O)/C=C\C=C(C)C(=O)Nc2c(C)c(OC(C)=O)c3c(c2O)C(=O)C(C)=C2OCOC(=C23)C(C)=C[C@@](C)(O)[C@H](O)[C@@H](C)[C@H]1OC(C)=O | > 100 µM and > 66.9 µM and 62.8 µM | > 100 µM | > 100 µM and 66.9 µM | > 100 µM and 66.9 µM | > 100 µM | > 100 µM and 66.9 µM | > 100 µM | > 100 µM | > 100 µM and 66.9 µM | > 100 µM | > 66.9 µM | > 66.9 µM |  | 63.2 µM | > 66.9 µM | 42.5 µM |  |  | > 66.9 µM | > 66.9 µM
O=C(O)CCc1coc2ccc(O)cc12 | > 100 µM |  |  | > 100 µM | > 100 µM | > 100 µM | > 100 µM | > 100 µM | > 100 µM | > 100 µM |  |  |  |  |  |  |  |  |  | 
Cc1nc2ccccc2c(=O)n1-c1ccccc1I | > 100 µM | > 100 µM | > 100 µM | > 100 µM | > 100 µM | > 100 µM | > 100 µM |  | > 100 µM | > 100 µM |  |  |  |  |  |  |  |  |  | 
COC1CCC2C(NS(=O)(=O)c3ccc(C)cc3)CCCC2O1 (stereo unspecified) (tested in a mixture with another compound) | > 34.5 µM | > 34.5 µM | > 34.5 µM | > 34.5 µM | > 34.5 µM | > 34.5 µM | 21.4 µM | 28 µM | > 34.5 µM | > 34.5 µM |  |  |  |  |  |  |  |  |  | 
NC(=O)c1sc(-n2cnc3ccccc32)cc1OCc1ccccc1Br | > 25 µM | > 25 µM | > 25 µM | > 25 µM | > 25 µM | > 25 µM | > 25 µM |  | > 25 µM | > 25 µM | 4.44 µM | 4.98 µM | 15.4 µM | > 25 µM | 2.36 µM | 6.95 µM |  | 11 µM | 6.94 µM | 3.9 µM
